Test system: RAD51C bi-allelic mutated cells
Assay: Toxicity of PARP inhibitor / topoisomerase I inhibitor exposure in cells with reduced or absent RAD51C function (FIG. 5, FIG. 6)
Type: cell-based
Conditions: RAD51C bi-allelic mutated cells vs normal cells, mono-allelic RAD51C mutated cells and RAD51C-complemented cells

Structure (SMILES) | sensitivity (toxicity) of cells towards exposure to the PARP inhibitor (FIG. 5, means±SD, n=3) | sensitivity (toxicity) of cells towards exposure to the topoisomerase I inhibitor (FIG. 6, means±SD, n=4)
CN(C)CC(=O)Nc1ccc2[nH]c(=O)c3ccccc3c2c1 [PJ34] | increased toxicities | –
CC[C@@]1(O)C(=O)OCc2c1cc1n(c2=O)Cc2cc3ccccc3nc2-1 [camptothecin] | – | increased toxicities
